The values that follow come from patent US9193720B2, “Pyridin-3-yl acetic acid derivatives as inhibitors of human immunodeficiency virus replication” (priority 2014, dated 2015).

As usually defined, the EC50 is the concentration that produces a half-maximal response. Read a high EC50 as a need for much substance.

This assay has as its system NL-RLuc virus. In words: Inhibition of HIV Replication (NL-RLuc luciferase reporter virus in MT-2 cells). The settings on record: Human immunodeficiency virus 1, MT2, 120 h. It is filed as cell-based. Summed up: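 Replication-competent virus with Renilla luciferase in place of part of nef, made in 293T cells and titered in MT-2 cells. Infected MT-2 cells grown 5 days with serially diluted compound in RPMI 1640/10% FBS, 10 mM HEPES pH 7.55. Luciferase read-out; EC50 from median effect equation, at least 2 experiments.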
(In general: Reporter assays use an easily measured gene product as a stand-in for the process of interest.)
`CCC1(C)CCN(c2c(-c3ccc(OCCc4ccc(F)cc4)cc3)c(C)nc(C)c2[C@H](OC(C)(C)C)C(=O)O)CC1` [Example 75, (S)-2-(tert-butoxy)-2-(4-(4-ethyl-4-methylpiperidin-1-yl)-5-(4-(4-fluorophenethoxy)phenyl)-2,6-dimethylpyridin-3-yl)acetic acid] yielded a concentration giving a half-maximal response (EC50) of 0.004 µM.
For the compound `Cc1nc(C)c([C@H](OC(C)(C)C)C(=O)O)c(N2CCC(C)CC2)c1-c1ccc(OCCc2ccc(F)cc2)cc1` [Example 76, (S)-2-(tert-butoxy)-2-(5-(4-(4-fluorophenethoxy)phenyl)-2,6-dimethyl-4-(4-methylpiperidin-1-yl)pyridin-3-yl)acetic acid], the midpoint of the response, the EC50, lay at 0.017 µM.
In the case of `COC1(C)CCN(c2c(-c3ccc(OCCc4ccc(F)cc4)cc3)c(C)nc(C)c2[C@H](OC(C)(C)C)C(=O)O)CC1` [Example 77, (S)-2-(tert-butoxy)-2-(5-(4-(4-fluorophenethoxy)phenyl)-4-(4-methoxy-4-methylpiperidin-1-yl)-2,6-dimethylpyridin-3-yl)acetic acid] it was 0.002 µM; in that of `Cc1nc(C)c([C@H](OC(C)(C)C)C(=O)O)c(N2CCC(C)(C#N)CC2)c1-c1ccc(OCCc2ccc(F)cc2)cc1` [Example 78, (S)-2-(tert-butoxy)-2-(4-(4-cyano-4-methylpiperidin-1-yl)-5-(4-(4-fluorophenethoxy)phenyl)-2,6-dimethylpyridin-3-yl)acetic acid], 0.004 µM.
Compound `CC(C)=C1CCN(c2c(-c3ccc(OCCc4ccc(F)cc4)cc3)c(C)nc(C)c2[C@H](OC(C)(C)C)C(=O)O)CC1` [Example 79, (S)-2-(tert-butoxy)-2-(5-(4-(4-fluorophenethoxy)phenyl)-2,6-dimethyl-4-(4-(propan-2-ylidene)piperidin-1-yl)pyridin-3-yl)acetic acid] displayed an EC50 of 0.291 µM.
`Cc1nc(C)c([C@H](OC(C)(C)C)C(=O)O)c(N2CCC(Cc3ccccc3)CC2)c1-c1ccc(OCCc2ccc(F)cc2)cc1` [Example 80, (S)-2-(4-(4-benzylpiperidin-1-yl)-5-(4-(4-fluorophenethoxy)phenyl)-2,6-dimethylpyridin-3-yl)-2-(tert-butoxy)acetic acid] showed a 50% effective concentration (EC50) of 1.77 µM.
`Cc1nc(C)c([C@H](OC(C)(C)C)C(=O)O)c(N2CCC(C)(F)CC2)c1-c1ccc(OCCc2ccc(F)cc2)cc1` [Example 81, (S)-2-(tert-butoxy)-2-(4-(4-fluoro-4-methylpiperidin-1-yl)-5-(4-(4-fluorophenethoxy)phenyl)-2,6-dimethylpyridin-3-yl)acetic acid]: the concentration for a half-maximal effect (EC50) was 0.004 µM. Compared with the last compound, the EC50 is about 440-fold lower.
As to `Cc1nc(C)c([C@H](OC(C)(C)C)C(=O)O)c(N2CC(C)CC(C)C2)c1-c1ccc(OCCc2ccc(F)cc2)cc1` (some centres unmarked) [Example 82], the EC50 was 5.43 µM. This EC50 is about 1400-fold higher than that of the compound before.
